US20250221957A1, “PS[…] AND THEIR USE FOR TREATING […] AND NE[…] DISORDERS” (Transcend Therapeutics, Inc., priority 2021, published 2025)
Read-outs that look alike come from different tables or passages of the source. Marks after values point to notes of the source that are not given here.

Tests used:
[1] = test system: patients with a diagnosis of PTSD or MDD; healthy subjects; assay: Methylone case series (Example 4, Cohorts 1 and 2): CGI-S/CGI-I and safety events; format: in vivo, human
Procedure: CGI-S scale was also evaluated in a subset of patients from Cohort 2 post-treatment. Cohort 2 was evaluated for any observed or reported safety events following a single dosing session.
Clinical Global Impressions (CGI) scale includes 2 components: CGI-S(“severity”) and CGI-I (“improvement”).
• 1=Normal—not at all ill, symptoms of disorder not present past seven days • 2=Borderline mentally ill-subtle or suspected pathology • 3=Mildly ill-clearly established symptoms with minimal, if any, distress or difficulty in social and occupational function • 4=Moderately ill-overt symptoms causing noticeable, but modest, functional impairment or distress; symptom level may warrant medication • 5=Markedly ill-intrusive symptoms that distinctly impair social/occupational function or cause intrusive levels of distress • 6=Severely ill-disruptive pathology, behavior and function are frequently influenced by symptoms, may require assistance from others • 7=Among the most extremely ill patients-pathology drastically interferes in many life functions; may be hospitalized
Only sessions that included methylone dosing were counted as dosing sessions.
Single sessions occurred for 8 of the 28 cases with no booster in two of these cases. In the remainder of the cases, multiple sessions occurred, and booster doses were used in all or some of the remaining patients ([…]) with multiple booster doses used in some or all of the sessions in 15 patients.

Sprague Dawley rats = assay: Forced Swim Test (FST); format: in vivo, rat; conditions: for reduction in immobility compared to saline vehicle: single dose 30 min prior to testing (Example 6)
Text: The Forced Swim Test (FST) is a classic, and the most used preclinical behavioral assay to screen compounds with antidepressant-like activity and has high predictive and face validity (Porsolt et al. (1977) Nature 266:730; Borsini and Meli (1988) Psychopharmacology 94:147). The premise of the FST is that when rats are placed into a cylinder filled with water, they will initially try to escape, but over time will become immobile. This increased immobility reflects behavioral despair, modeling a depressive-like state.
Animals: Male Sprague Dawley rats (Charles River Laboratories) weighing 180-200 g on arrival, were used for this study which took place at Melior Discovery (Exton, PA). Rats acclimated to their home cages for at least one week before testing, were maintained in a controlled environment on a 12 h light/dark cycle, with no more than 2 rats per cage. Animals received ad libitum access to food and water and were assigned randomly to treatment groups. Animal use and procedures were in accordance with established protocols approved by the IACUC committee, Melior Standard Operation Procedures (SOP), and Transcend Therapeutics.
Forced Swim Test (FST): In the FST trial, rats were be placed in a circular plexiglass container filled with water, with no means of escape. Water temperature was maintained at 22-25° C. and changed for every animal. After an acclimation period, rats were timed for inactivity (failure to struggle), activity, swim time and climbing time. Day 1 consisted of a 15 min acclimation trial, and Day 2 (24 h later) consisted of the 5 min test. A time sampling procedure was employed where animals were observed every 5 sec and scored for immobility, swimming, or climbing. Fluoxetine (10 mg/kg, IP, Sigma Aldrich) or 0.9% sterile saline vehicle (vehicle 3× group) were administered 23.5, 5, and 1 h before testing in the FST. […] The experimenter was blinded to treatment.
Statistical Analysis: Data for each parameter of the test (immobility, swimming, or climbing) is expressed as the mean±SEM. Differences between groups were determined by one-way ANOVA and post-hoc Tukey's test with a p-value of less than 0.05 indicating statistically significant differences.
Forced Swim Test: In the FST trial, rats were be placed in a circular plexiglass container filled with water, with no means of escape. Water temperature was maintained at 22-25° C. and changed for every animal. After an acclimation period, rats were timed for inactivity (failure to struggle), activity, swim time and climbing time. Day 1 consisted of a 15 min acclimation trial, and Day 2 (24 h later) consisted of the 5 min test. A time sampling procedure was employed where animals were observed every 5 sec and scored for immobility, swimming, or climbing. Fluoxetine (10 mg/kg, IP, Sigma Aldrich) or 0.9% sterile saline vehicle (vehicle 3× group) were administered 23.5, 5, and 1 h before testing in the FST. 2C-B (2.5, 10, or 20 mg/kg, IP, Cayman Chemical) or 0.9% saline vehicle (vehicle 1× group) were administered 30 min prior to FST testing. The experimenter was blinded to treatment.
Drug Treatment: Fluoxetine (10 mg/kg, IP, Sigma Aldrich) or 0.9% sterile saline vehicle were administered 23.5, 5, and 1 h before testing in the FST. […] Control animals received fluoxetine alone, methylone alone, or saline vehicle.
Forced Swim Test: In the FST trial, rats were be placed in a circular plexiglass container filled with water, with no means of escape. Water temperature was maintained at 22-25° C. and changed for every animal. After an acclimation period, rats were timed for inactivity (failure to struggle), activity, swim time and climbing time. The experimenter and scorer were blind to treatment group. Day 1 consisted of a 15 min acclimation trial, and Day 2 (24 h later) consisted of the 5 min test. A time sampling procedure was employed where animals were observed every 5 sec and scored for immobility, swimming, or climbing. […]

[2] = target: dopamine (DA) transporter (Homo sapiens, UniProt Q01959); assay: Radioligand binding, [3H] WIN35428
Sequence of dopamine (DA) transporter (Q01959 whole entry): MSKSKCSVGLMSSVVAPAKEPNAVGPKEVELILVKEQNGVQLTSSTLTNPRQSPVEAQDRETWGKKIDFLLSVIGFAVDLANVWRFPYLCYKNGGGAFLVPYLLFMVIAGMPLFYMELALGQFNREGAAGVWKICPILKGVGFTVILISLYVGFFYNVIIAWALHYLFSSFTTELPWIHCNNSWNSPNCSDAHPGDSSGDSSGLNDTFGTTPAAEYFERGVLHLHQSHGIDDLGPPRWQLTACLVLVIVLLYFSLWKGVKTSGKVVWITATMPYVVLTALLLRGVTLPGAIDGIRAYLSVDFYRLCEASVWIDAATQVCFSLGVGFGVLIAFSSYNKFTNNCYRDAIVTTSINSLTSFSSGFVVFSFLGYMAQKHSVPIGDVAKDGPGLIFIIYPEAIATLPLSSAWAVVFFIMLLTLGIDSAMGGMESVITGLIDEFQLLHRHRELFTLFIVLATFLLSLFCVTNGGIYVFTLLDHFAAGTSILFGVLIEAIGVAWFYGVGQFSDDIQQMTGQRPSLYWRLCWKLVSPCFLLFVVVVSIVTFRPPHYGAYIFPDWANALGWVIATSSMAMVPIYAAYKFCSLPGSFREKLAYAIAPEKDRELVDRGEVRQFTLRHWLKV

168 GPCRs = assay: DiscoverX PathHunter β-arrestin GPCR screen, agonist and antagonist mode; format: cell-based; conditions: 1 and 10 micromolar
Procedure: For agonist determination, cells were incubated with sample to induce response. […] Vehicle concentration was 1%.
Vehicle concentration was 1%.

serotonin transporter = serotonin transporter (Homo sapiens, UniProt P31645); conditions: cited from earlier work
Sequence of serotonin transporter (P31645 whole entry): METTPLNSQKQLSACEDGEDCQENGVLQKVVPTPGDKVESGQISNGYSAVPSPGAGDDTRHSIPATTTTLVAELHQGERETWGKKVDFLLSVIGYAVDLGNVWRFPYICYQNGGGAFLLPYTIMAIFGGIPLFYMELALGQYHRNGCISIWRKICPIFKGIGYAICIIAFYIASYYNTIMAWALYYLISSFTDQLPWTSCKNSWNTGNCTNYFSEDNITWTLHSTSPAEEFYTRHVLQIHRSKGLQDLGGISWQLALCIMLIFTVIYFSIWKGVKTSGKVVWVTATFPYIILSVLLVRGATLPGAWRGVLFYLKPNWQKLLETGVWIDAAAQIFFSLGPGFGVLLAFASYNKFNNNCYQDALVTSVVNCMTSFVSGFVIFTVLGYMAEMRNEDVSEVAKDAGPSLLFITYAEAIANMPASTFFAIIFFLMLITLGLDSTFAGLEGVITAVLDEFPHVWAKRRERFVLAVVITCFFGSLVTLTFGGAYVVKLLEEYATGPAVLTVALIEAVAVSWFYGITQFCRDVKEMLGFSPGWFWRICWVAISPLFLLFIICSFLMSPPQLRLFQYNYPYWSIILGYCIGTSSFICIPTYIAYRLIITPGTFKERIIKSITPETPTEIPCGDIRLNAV

drug users / humans = conditions: methylone 50 mg in humans (Poyatos 2022); cited from earlier work

## CNC(C)C(=O)c1ccc2c(c1)OCO2 (centres unmarked) [methylone, 3,4-methylenedioxy-N-methylcathinone]
[1]
  Number of cases (N = 28), Magnitude of Improvement: 0
[1]; Cohort 1, 4 healthy subjects, single session, total dose 790 or 870 mg oral
  adverse effects or after-effects: no adverse effects or after-effects were observed or reported
[1]; Cohort 2, 25 of 28 cases
  cases in which methylone dosing was well tolerated and no safety events were reported: 89.3%
[1]; Cohort 2, 25 of 28 patients
  patients with initial improvement with the first methylone session: ~90%
[1]; Cohort 2 MDD subset, 8/8 patients
  patients achieving CGI-I 1 or 2: 100%
[1]; Cohort 2 PTSD subset, 16/20 patients
  patients achieving CGI-I 1 or 2: 80%
[1]; Cohort 2 overall, N=28, oral methylone, single or multiple sessions, compared to baseline CGI-S
  patients achieving CGI-I 1 or 2 (much improved or very much improved): 86%
[1]; MDD subset of Cohort 2, 6 narratives with durability information
  cases reporting a durable effect: 5
[1]; PTSD subset of Cohort 2
  cases with durable effect of 6 months or greater: 12
[1]; PTSD subset of Cohort 2, 16 narratives with durability information
  case narratives reporting a durable effect: 15
[1]; PTSD subset, of 5 patients with concomitant SSRIs or other antidepressant classes
  patients with magnitude of improvement CGI 1 or 2: 4
[1]; highest observed CGI-I = 1 (very much improved), Cohort 2
  Number of cases (N = 28), Magnitude of Improvement: 11*
[1]; highest observed CGI-I = 2 (much improved), Cohort 2
  Number of cases (N = 28), Magnitude of Improvement: 13
[1]; highest observed CGI-I = 3 (minimally improved), Cohort 2
  Number of cases (N = 28), Magnitude of Improvement: 4
[1]; highest observed CGI-I = 4 (no change), Cohort 2
  Number of cases (N = 28), Magnitude of Improvement: 0
[1]; highest observed CGI-I = 5 (minimally worse), Cohort 2
  Number of cases (N = 28), Magnitude of Improvement: 0
[1]; highest observed CGI-I = 6 (much worse), Cohort 2
  Number of cases (N = 28), Magnitude of Improvement: 0
Sprague Dawley rats; Example 8
  climbing behavior: significantly increased climbing behavior
Sprague Dawley rats; Methylone alone, 5 mg/kg IP (Example 8)
  reduced immobility compared to vehicle: 71%
Sprague Dawley rats; combined treatment: fluoxetine x3 plus Methylone 15 mg/kg IP (Example 8)
  reduced immobility compared to vehicle: 95%
Sprague Dawley rats; methylone 5 mg/kg IP
  reduction in immobility compared to saline vehicle: 54%
Sprague Dawley rats; methylone 15 mg/kg IP
  reduction in immobility compared to saline vehicle: 99%
Sprague Dawley rats; methylone 30 mg/kg IP
  reduction in immobility compared to saline vehicle: 96%
Sprague Dawley rats; methylone 5, 15, 30 mg/kg IP, Example 6
  climbing: only increased at the lowest dose
Sprague Dawley rats; methylone mid and high doses (15, 30 mg/kg IP), Example 6
  swimming: significantly increased swimming
Sprague Dawley rats; single dose of Methylone (5 mg/kg IP) after three prior doses of fluoxetine 10 mg/kg IP (Example 8)
  reduced immobility vs. vehicle: 62%
Sprague Dawley rats; single doses of 10 and 15 mg/kg methylone IP (Example 11)
  immobility time: reducing immobility time significantly
Sprague Dawley rats; two or three 5 mg/kg doses IP (Example 11)
  immobility: significantly reduce immobility
[2]
  binding at the DA transporter: confirmed methylone binding
168 GPCRs
  agonist or antagonist activity (criteria: >30% activity, >50% inhibition): did not meet criteria for agonist or antagonist activity
Serotonin transporter
  affinity for the serotonin transporter lower by comparison to MDMA: 3 ×
Drug users / humans
  side effects: no detectable side effects
